For 61 compounds, IC50 results are on record in PubChem BioAssay AID2305 (GlaxoSmithKline (GSK), 2010).

By IC50 is commonly meant the concentration needed to halve the response being measured.

This experiment relates to P. falciparum 3D7 growth, pLDH absorbance. Description: P. falciparum 3D7 growth inhibition, dose response, strain 3D7 (AID 2305).

In turn, `CCOc1cc(C(=O)NC2CC(C)(C)NC(C)(C)C2)ccc1-c1cc2cc(Cl)c(Cl)cc2[nH]1` gave an IC50 of 770 nM.
In the case of `Cc1cccc(C)c1CNc1ccnc2cc(C#N)ccc12` it was 680 nM; in that of `Cc1cc([N+](=O)[O-])ccc1N1CCN(CCCCNC(=O)c2ccc(NC(=O)c3ccc(Cl)cc3)cc2)CC1`, 890 nM.
Turning to `Cn1cc(C2CCN(CCCCNC(=O)c3ccc(-c4ccc(C(F)(F)F)cc4)c(CO)c3)CC2)c2ccccc21`, the IC50 was 1000 nM.
The compound `CC[C@H]1CN2CC[C@@H]1C[C@H]2[C@H](O)c1ccnc2ccc(OC)cc12` registered an IC50 of 230 nM.
`CNS(=O)(=O)c1ccc2c(c1)nc(C1CCN(CC3CCC(NC(=O)/C=C/c4ccc(Cl)c(Cl)c4)CC3)CC1)n2C` (stereo unspecified) had an IC50 of 670 nM.
`Cc1ccc2ccncc2c1N` yielded an IC50 of 700 nM.
In the case of `CCCCC(CC)C(=O)C(NC(=O)[C@H](CSC(c1ccccc1)(c1ccccc1)c1ccccc1)NC(=O)OC(C)(C)C)C(=O)OC` (stereo partly specified) it was 1020 nM; in that of `CCN1CCc2c1cc(C(=O)N[C@@H](Cc1ccccc1)[C@H](O)CNC(C)(C)c1cccc(C(F)(F)F)c1)cc2N1CCCCS1(=O)=O`, 110 nM; in that of `CN1CC[C@@H](Oc2cc(NC(=O)Nc3ccccc3Br)ccc2Cl)C1`, 1100 nM.
Turning to `CC(=O)c1c[nH]c(C(=O)Nc2ccc(-c3cn4ccccc4n3)cc2)c1`, the IC50 is 890 nM.
In the case of `O=C(NN=Cc1nc2ccccc2[nH]1)c1cccc([N+](=O)[O-])c1` it was 630 nM; in that of `Cn1ncc2c3c(CCN4CCC(NCc5cc6c(cn5)OCC6)CC4)c(Cl)cnc3ccc21`, 880 nM.
In turn, `CCOc1ccc2nc(C)cc(NN=Cc3cccc([N+](=O)[O-])c3)c2c1` gave a concentration for half-maximal inhibition (IC50) of 660 nM.
As for `CN1CCc2ccc(NC(=O)Nc3cccc([N+](=O)[O-])c3)cc2C1`, the concentration for half-maximal inhibition (IC50) came out at 1100 nM.
In the case of `COc1cc(Cc2cnc(N)nc2N)cc(OC)c1OCCNC(=O)[C@@H](N)CCC(=O)O` it was 840 nM; in that of `CCC1CCCCN1S(=O)(=O)c1ccc(OC)c(N2CCN(C(=O)C(Cl)(Cl)Cl)CC2)c1` (stereo unspecified), 1120 nM.
In the case of `COc1cccc(C2CCCN(CCCCNC(=O)c3ccc(NC(=O)c4ccc(Cl)cc4)cc3)C2)c1` (stereo unspecified) it was 860 nM.
In the case of `N#CC(c1cccc(Cl)c1)c1ccc2c(C(F)(F)F)cc(C(F)(F)F)nc2n1` (stereo unspecified) it was 730 nM.
Compound `O=C(CSc1n[nH]c(-c2ccccc2Br)n1)c1c[nH]c2ccccc12` registered an IC50 of 980 nM.
In the case of `O=C(Nc1cccc(-c2nn3ncccc3c2-c2ccnc(Nc3cccc(C(F)(F)F)c3)n2)c1)c1c(F)cccc1F` it was 650 nM.
Regarding `CN(c1cc(NC(=O)c2ccc(F)cc2)ccn1)C1CCN(Cc2ccc(C#N)cc2)CC1`, the IC50 was 1510 nM.
The figure for `O=C(Nc1ccc(OC2CCN(Cc3ccco3)C2)c(Cl)c1)c1ccc2ncccc2c1` (stereo unspecified) is 1080 nM.
In turn, `CN(C)CCOc1ccc(N2CCN(CCCCNC(=O)c3ccc(NC(=O)c4ccc(Cl)cc4)cc3)CC2)cc1` returned an IC50 of 830 nM.
Compound `CCn1cc(CN2CCCC(C(=O)Nc3ccc(-c4nc5ccccc5[nH]4)cc3)C2)cn1` (stereo unspecified) came in with an IC50 of 930 nM.
In the case of `O=[N+]([O-])c1cc2c(cc1C=NNc1nc(Nc3ccccc3)nc(Nc3ccccc3)n1)OCO2` it was 870 nM.
Consider `CCCNCc1ccc(-c2ccc(CN(CCOC)C(=O)c3ccccc3)cc2)nc1`, for which the IC50 turned out to be 880 nM.
Turning to `CC(Cc1ccc(OCCCCOc2ccccc2)cc1)NCCC1CCCN1C` (stereo unspecified), the IC50 was 40 nM.
In the case of `CC(C)c1ccc(NC(=O)N2CCc3ccc(OCCN(C(C)C)C(C)C)cc32)c(Br)c1` it was 1090 nM; in that of `CCC(=O)c1ccc(-c2ccc(=O)n(CC(=O)N(CCN(CC)CC)Cc3ccc(-c4ccc(C(F)(F)F)cc4)cc3)n2)cc1`, 720 nM; in that of `O=C(Nc1ccc(-c2ccc(-c3nc4ccccc4[nH]3)s2)cc1)Nc1ccsc1`, 280 nM.
The figure for `CCCCNCC(O)COc1ccccc1-c1ccc(N/N=C/c2cccc3ccccc23)nn1` (stereo unspecified) is 890 nM.
Regarding `O=C(NCc1cccc(OC(F)(F)F)c1)c1cnc2c(c1)nc(-c1cnc(-c3ccccc3)[nH]1)n2CCc1cnc[nH]1`, the IC50 worked out at 680 nM.
With `CC(C)CNCc1cccc(-c2ccc(CNC3CCN(Cc4ccccc4)CC3)cc2)c1`, the concentration for half-maximal inhibition (IC50) is 270 nM.
In the case of `COc1cccc2sc(Nc3nc(-c4ccccn4)cs3)nc12` it was 800 nM; in that of `O=C(Cn1c(CCc2cccc(F)c2F)nc(=O)c2ccccc21)N(CCCN1CCCCC1)Cc1ccc(-c2ccc(C(F)(F)F)cc2)cc1`, 760 nM.
Turning to `Cc1ccc(/C=C/C(=O)NCCCCCN2CCC(c3c[nH]c4ccccc34)CC2)cc1`, the IC50 came to 1010 nM.
In the case of `Cc1cccc2[nH]c(-c3cccc(-c4ccc(NC(=O)CN5CCOCC5)cc4)c3)nc12` it was 1050 nM.
In the case of `CN(Cc1ccccc1)C1CCCN(c2cc(NC(=O)c3cccs3)ccn2)C1` (stereo unspecified) it was 1130 nM.
In the case of `COc1ccc(CCNCc2ccc3c(C)cc(N)nc3c2)cc1` it was 570 nM; in that of `O=C(CCc1cccnc1)Nc1cccc(-c2ccc(-c3nc4ccc(C(F)(F)F)cc4[nH]3)cc2)c1`, 870 nM.
The compound `COc1ccc(N2CCN(CCCCNC(=O)c3ccc(NC(=O)c4ccc(Cl)c(Cl)c4)cc3)CC2)c(OC)c1` had an IC50 of 210 nM.
In the case of `O=C(NCCNc1ccnc(NCc2ccc(F)cc2)n1)c1cc2ccccc2s1`, the IC50 was 700 nM.
In the case of `Cc1csc2nc(-c3ccccn3)nc(Nc3ccc4ncsc4c3)c12` it was 1110 nM; in that of `O=C(NC1CC1)c1cnc(N2CCC(Cc3ccccc3)CC2)c(Cl)c1`, 670 nM.
In the case of `Cc1cc([N+](=O)[O-])ccc1NC(=O)Nc1cccc(C(F)(F)F)c1` it was 720 nM; in that of `Cc1cc(N2CCCC2)nc(Nc2ccc(NC(=O)C(C)C)cc2)n1`, 1100 nM.
The figure for `CCOc1ccc(C(=O)Nc2cc(Br)c3c(c2)CNCC3)cc1C(F)(F)F` is 940 nM; for `OC(c1cc(C(F)(F)F)nc2c(C(F)(F)F)cccc12)C1CCCCN1` (stereo unspecified) it is 70 nM.
In the case of `Oc1ccc2ccccc2c1CNC1CCCCCC1`, the IC50 worked out at 930 nM.
`CCCC(C)NC(=O)[C@H](CC1CCCCC1)NC(=O)c1ccc(O)c(-c2ccc(OC)cc2)c1` (stereo partly specified) came in with an IC50 of 1130 nM.
As for `Cc1cc(C)c(-c2n[nH]c3c2C(c2cccc(Cl)c2)N(Cc2ccco2)C3=O)c(O)c1` (stereo unspecified), the IC50 stood at 1010 nM.
In the case of `COC(=O)[C@@H](NC(=O)[C@H](CC(C)C)Nc1ccc(C#N)c2ccccc12)c1ccc(O)cc1` it was 790 nM; in that of `Cc1cccc2[nH]c(-c3ccc(-c4ccc(CNCc5ccccc5)cc4)cc3)nc12`, 510 nM; in that of `O=S(=O)(NCCCN1CCOCC1)c1ccc2nccc(Nc3ccc(Oc4ccccc4)cc3)c2c1`, 850 nM.
In turn, `O=C(C=Cc1ccc(C(=O)Nc2ccc(C3=NCCN3)cc2)cc1)Nc1ccc(C2=NCCN2)cc1` yielded an IC50 of 30 nM.
The compound `O=C(CSc1nc(-c2ccccc2Cl)ns1)Nc1cccc(Cl)c1` gave an IC50 of 790 nM.
In the case of `Cc1onc(-c2c(Cl)cccc2Cl)c1C(=O)N1CCc2cc3nccc(N4CCN5CCC[C@H]5C4)c3cc21`, the IC50 worked out at 770 nM.
Turning to `O=C(Nc1ccc(-c2ccc(CN3CCNCC3)cc2)cc1)c1cccc(Cl)c1`, the IC50 came out at 890 nM.
In the case of `COc1ccc(NC(=O)Nc2cccc(-c3ccc(-c4nc5ccc(C(F)(F)F)cc5[nH]4)cc3)c2)cc1`, the IC50 worked out at 450 nM.
For `COc1ccc(C2CCN(CCCCNC(=O)c3ccc(NC(=O)c4ccc(Cl)cc4)cc3)CC2)c(OC)c1`, the IC50 was 570 nM.
